Data from publication PMC6318789 (Journal of the American Chemical Society, 2015).

Target: p300 (Homo sapiens, UniProt Q09472)
Type: binding

Chain of p300 (Q09472 323-423): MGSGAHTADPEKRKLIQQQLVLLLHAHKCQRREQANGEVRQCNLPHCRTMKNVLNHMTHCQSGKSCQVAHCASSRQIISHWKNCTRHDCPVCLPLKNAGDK
Chain of p300 (Q16665 786-826 partner): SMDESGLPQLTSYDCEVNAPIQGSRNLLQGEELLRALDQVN

Compound: COc1ccc(C2(O)N=C3N=CC=C4c5ccccc5N=C2N43)cc1 (racemic) [compound 1, eudistidine A]
- IC50: ~75 µM
